Test results reported in the supplement of paper PMC11451515.

Tested on: SEM cells
Assay: cell viability relative to DMSO control; higher = less cytotoxic
Conditions: 48 h
How it was run: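 Viability is a per-plate percentage relative to DMSO wells, with cell-free wells as background. CellTiter-Glo One luminescence was read after 48 h at 37°C on 1536-well plates (5 μl) of NOMO1 or SEM (500 cells/well) or P12-Ichikawa (1000 cells/well) leukemia cells. The cells had been adapted for at least four passages in each medium and pin-dosed with library compounds in DMSO from 47 μM to 0.79 nM in 11 threefold steps.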

[1] = HPLM + 10% dialyzed FBS, 0.000781 µM
[2] = HPLM + 10% dialyzed FBS, 0.00234 µM
[3] = HPLM + 10% dialyzed FBS, 0.00702 µM
[4] = HPLM + 10% dialyzed FBS, 0.0211 µM
[5] = HPLM + 10% dialyzed FBS, 0.0632 µM
[6] = HPLM + 10% dialyzed FBS, 0.19 µM
[7] = HPLM + 10% dialyzed FBS, 0.569 µM
[8] = HPLM + 10% dialyzed FBS, 1.71 µM
[9] = HPLM + 10% dialyzed FBS, 5.12 µM
[10] = HPLM + 10% dialyzed FBS, 15.4 µM
[11] = HPLM + 10% dialyzed FBS, 46.1 µM
[12] = RPMI 5 mM glucose + 10% FBS, 0.000781 µM
[13] = RPMI 5 mM glucose + 10% FBS, 0.00234 µM
[14] = RPMI 5 mM glucose + 10% FBS, 0.00702 µM
[15] = RPMI 5 mM glucose + 10% FBS, 0.0211 µM
[16] = RPMI 5 mM glucose + 10% FBS, 0.0632 µM
[17] = RPMI 5 mM glucose + 10% FBS, 0.19 µM
[18] = RPMI 5 mM glucose + 10% FBS, 0.569 µM
[19] = RPMI 5 mM glucose + 10% FBS, 1.71 µM
[20] = RPMI 5 mM glucose + 10% FBS, 5.12 µM
[21] = RPMI 5 mM glucose + 10% FBS, 15.4 µM
[22] = RPMI 5 mM glucose + 10% FBS, 46.1 µM
[23] = RPMI 5 mM glucose + 10% dialyzed FBS, 0.000781 µM
[24] = RPMI 5 mM glucose + 10% dialyzed FBS, 0.00234 µM
[25] = RPMI 5 mM glucose + 10% dialyzed FBS, 0.00702 µM
[26] = RPMI 5 mM glucose + 10% dialyzed FBS, 0.0211 µM
[27] = RPMI 5 mM glucose + 10% dialyzed FBS, 0.0632 µM
[28] = RPMI 5 mM glucose + 10% dialyzed FBS, 0.19 µM
[29] = RPMI 5 mM glucose + 10% dialyzed FBS, 0.569 µM
[30] = RPMI 5 mM glucose + 10% dialyzed FBS, 1.71 µM
[31] = RPMI 5 mM glucose + 10% dialyzed FBS, 5.12 µM
[32] = RPMI 5 mM glucose + 10% dialyzed FBS, 15.4 µM
[33] = RPMI 5 mM glucose + 10% dialyzed FBS, 46.1 µM

SMILES | cell viability [1] [%] | cell viability [2] [%] | cell viability [3] [%] | cell viability [4] [%] | cell viability [5] [%] | cell viability [6] [%] | cell viability [7] [%] | cell viability [8] [%] | cell viability [9] [%] | cell viability [10] [%] | cell viability [11] [%] | cell viability [12] [%] | cell viability [13] [%] | cell viability [14] [%] | cell viability [15] [%] | cell viability [16] [%] | cell viability [17] [%] | cell viability [18] [%] | cell viability [19] [%] | cell viability [20] [%] | cell viability [21] [%] | cell viability [22] [%] | cell viability [23] [%] | cell viability [24] [%] | cell viability [25] [%] | cell viability [26] [%] | cell viability [27] [%] | cell viability [28] [%] | cell viability [29] [%] | cell viability [30] [%] | cell viability [31] [%] | cell viability [32] [%] | cell viability [33] [%]
CNc1nc(Nc2cnn([C@H]3CCN(C4COC4)C[C@@H]3F)c2Cl)ncc1C(F)(F)F | 96 | 89.1 | 97.7 | 103 | 109 | 105 | 112 | 93.1 | 37.7 | 20.9 | 26.5 | 103 | 123 | 108 | 112 | 85.3 | 55.7 | 65.5 | 20.1 | 18.9 | 16.1 | 17.6 | 101 | 106 | 112 | 116 | 126 | 106 | 106 | 73.6 | 32 | 17.6 | 17.1
CC1=CC(=CC(=C1C\C2=N\CCN2)C)C(C)(C)C | 58.5 | 90.1 | 83.4 | 100 | 88.3 | 98.1 | 97.4 | 100 | 106 | 107 | 77.6 | 77.8 | 104 | 91.7 | 101 | 103 | 96.4 | 110 | 104 | 110 | 83.3 | 94.9 | 89.1 | 96.3 | 102 | 105 | 118 | 107 | 118 | 112 | 113 | 120 | 94.7
CCCNC(=O)Nc1ccc(Oc2ncnc3cc(OC)c(OC)cc23)cc1Cl | 101 | 93.5 | 108 | 104 | 102 | 101 | 89.8 | 98.1 | 81 | 80.4 | 47.6 | 118 | 125 | 125 | 146 | 117 | 104 | 103 | 98 | 88.2 | 92.1 | 57.7 | 94 | 109 | 104 | 113 | 90.7 | 98.5 | 92.8 | 78.9 | 73.3 | 75.5 | 41.7
COc1ccc(C(=O)CC2(O)C(=O)Nc3c(Cl)ccc(Cl)c32)cc1 (stereo not drawn) | 87 | 108 | 111 | 110 | 104 | 109 | 113 | 107 | 45.9 | 20.5 | 16.2 | 75.7 | 98.4 | 99.7 | 79.3 | 94.1 | 85.1 | 81.2 | 65.7 | 41.4 | 10.7 | 9.15 | 94.8 | 101 | 107 | 88.9 | 104 | 107 | 107 | 90.3 | 47.3 | 20.4 | 14.9
Oc1nc(-c2ccc(C(F)(F)F)cc2)nc2c1CSCC2 | 90.6 | 95.7 | 107 | 50.8 | 110 | 106 | 97.4 | 97.8 | 91.1 | 84.3 | 79.6 | 101 | 102 | 92.6 | 39.7 | 113 | 107 | 113 | 111 | 114 | 95.6 | 86 | 97.9 | 96.6 | 105 | 47 | 105 | 114 | 111 | 98.3 | 93.6 | 82.6 | 85.2
COC(=O)c1ccc2c(c1)NC(=O)/C2=C(\Nc1ccc(N(C)C(=O)CN2CCN(C)CC2)cc1)c1ccccc1 | 76.7 | 79.4 | 60.3 | 30.1 | 48.9 | 50.9 | 46.4 | 38.3 | 37.9 | 30.5 | 23.8 | 96.1 | 92.7 | 84.2 | 31.7 | 68 | 60 | 57.5 | 43.8 | 41.3 | 36.7 | 24.5 | 82.9 | 83.2 | 60.1 | 30.8 | 49.2 | 44.6 | 38.7 | 35.9 | 30.2 | 29.8 | 25.4
